Measured values published in PubChem BioAssay AID1963863 (Molecular Pharmacology Branch, DTP, NCI, 2024).

Test system: 931267-113-T-J1-PDC KRAS spheroid with HUVEC/MSC, viability
Test: Anticancer human tumor 931267-113-T-J1-PDC patient-derived colon adenocarcinoma cell line growth inhibition [KRAS2]
Conditions: for IC50: curve of first compound; for viability, T/C: stronger effect = lower value
Summary of the method: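 KRAS-mutant tumor cells were grown as spheroids with HUVEC endothelial cells and human MSCs as stroma. Targeted agents were tested alone and with KRAS pathway inhibitors. Doses started at or near clinical Cmax, or 10 microM, descending half-log.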

[1] = second compound 0.1 µM, first compound 0.0316 µM
[2] = second compound 0.1 µM, first compound 0.1 µM
[3] = second compound 0.316 µM, first compound 0.0316 µM
[4] = second compound 0.316 µM, first compound 0.1 µM
[5] = second compound 1 µM, first compound 0.0316 µM
[6] = second compound 1 µM, first compound 0.1 µM
[7] = second compound 3.16 µM, first compound 0.0316 µM
[8] = second compound 3.16 µM, first compound 0.1 µM
[9] = second compound 10 µM, first compound 0.0316 µM
[10] = second compound 10 µM, first compound 0.1 µM
[11] = second compound 0.1 µM, first compound 0.316 µM
[12] = second compound 0.1 µM, first compound 1 µM
[13] = second compound 0.1 µM, first compound 3.16 µM
[14] = second compound 0.1 µM, first compound 10 µM
[15] = second compound 0.316 µM, first compound 0.316 µM
[16] = second compound 0.316 µM, first compound 1 µM
[17] = second compound 0.316 µM, first compound 3.16 µM
[18] = second compound 0.316 µM, first compound 10 µM
[19] = second compound 1 µM, first compound 0.316 µM
[20] = second compound 1 µM, first compound 1 µM
[21] = second compound 1 µM, first compound 3.16 µM
[22] = second compound 1 µM, first compound 10 µM
[23] = second compound 3.16 µM, first compound 0.316 µM
[24] = second compound 3.16 µM, first compound 1 µM
[25] = second compound 3.16 µM, first compound 3.16 µM
[26] = second compound 3.16 µM, first compound 10 µM
[27] = second compound 10 µM, first compound 0.316 µM
[28] = second compound 10 µM, first compound 1 µM
[29] = second compound 10 µM, first compound 3.16 µM
[30] = second compound 10 µM, first compound 10 µM
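Further: compound exposure lasted 7 days before the readout.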
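Wherever viability, T/C is given: 100% = DMSO vehicle control viability.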

Structure (SMILES) | IC50 (second compound 0.1 µM) [nM] | IC50 (second compound 0.316 µM) [nM] | IC50 (second compound 1 µM) [nM] | IC50 (second compound 3.16 µM) [nM] | IC50 (second compound 10 µM) [nM] | viability, T/C [1] [%] | viability, T/C [2] [%] | viability, T/C [3] [%] | viability, T/C [4] [%] | viability, T/C [5] [%] | viability, T/C [6] [%] | viability, T/C [7] [%] | viability, T/C [8] [%] | viability, T/C [9] [%] | viability, T/C [10] [%] | viability, T/C [11] [%] | viability, T/C [12] [%] | viability, T/C [13] [%] | viability, T/C [14] [%] | viability, T/C [15] [%] | other results
CC(C)n1nc(-c2ccc3oc(N)nc3c2)c2c(N)ncnc21 + COc1cc2nc(C)nc(NC(C)c3cc(N)cc(C(F)(F)F)c3)c2cc1OC1CCOC1 | 9.26 | 7.45 | 9.33 | 6.56 | < 0.316 | 31.1 | 24.9 | 28.1 | 24.2 | 30.9 | 23.9 | 28.6 | 23.6 | 2.74 | 1.79 | – | – | – | – | – | viability, T/C (second compound 0.1 µM, first compound 0.000316 µM): 109%; viability, T/C (second compound 0.1 µM, first compound 0.001 µM): 92.5%; viability, T/C (second compound 0.1 µM, first compound 0.00316 µM): 69%; viability, T/C (second compound 0.1 µM, first compound 0.01 µM): 50.5%; viability, T/C (second compound 0.316 µM, first compound 0.000316 µM): 108%; viability, T/C (second compound 0.316 µM, first compound 0.001 µM): 91.7%; viability, T/C (second compound 0.316 µM, first compound 0.00316 µM): 77.3%; viability, T/C (second compound 0.316 µM, first compound 0.01 µM): 39.1%; viability, T/C (second compound 1 µM, first compound 0.000316 µM): 84.5%; viability, T/C (second compound 1 µM, first compound 0.001 µM): 101%; viability, T/C (second compound 1 µM, first compound 0.00316 µM): 65.9%; viability, T/C (second compound 1 µM, first compound 0.01 µM): 51.7%; viability, T/C (second compound 3.16 µM, first compound 0.000316 µM): 79%; viability, T/C (second compound 3.16 µM, first compound 0.001 µM): 75.8%; viability, T/C (second compound 3.16 µM, first compound 0.00316 µM): 63.7%; viability, T/C (second compound 3.16 µM, first compound 0.01 µM): 41.9%; viability, T/C (second compound 10 µM, first compound 0.000316 µM): 1.37%; viability, T/C (second compound 10 µM, first compound 0.001 µM): 1.1%; viability, T/C (second compound 10 µM, first compound 0.00316 µM): 6.43%; viability, T/C (second compound 10 µM, first compound 0.01 µM): 3.9%
CC1(C)CCC(CN2CCN(c3ccc(C(=O)NS(=O)(=O)c4ccc(NCC5CCOCC5)c([N+](=O)[O-])c4)c(Oc4cnc5[nH]ccc5c4)c3)CC2)=C(c2ccc(Cl)cc2)C1 + COc1cc2nc(C)nc(NC(C)c3cc(N)cc(C(F)(F)F)c3)c2cc1OC1CCOC1 | 2100 | 1950 | 1820 | 1650 | < 31.6 | 89 | 88.1 | 86.2 | 90.3 | 76.5 | 93.4 | 61.9 | 86.5 | 0.9 | 2.22 | 90.1 | 95.8 | 27.7 | 8.52 | 84 | viability, T/C [16]: 83%; viability, T/C [17]: 26.3%; viability, T/C [18]: 5.92%; viability, T/C [19]: 76.1%; viability, T/C [20]: 84.9%; viability, T/C [21]: 19.6%; viability, T/C [22]: 2.71%; viability, T/C [23]: 60.2%; viability, T/C [24]: 69.8%; viability, T/C [25]: 24.3%; viability, T/C [26]: 4.36%; viability, T/C [27]: 0.8%; viability, T/C [28]: 1.14%; viability, T/C [29]: 2.02%; viability, T/C [30]: 0.84%
COc1cc(Nc2ncc3c(n2)-c2ccc(Cl)cc2C(c2c(F)cccc2OC)=NC3)ccc1C(=O)O + COc1cc2nc(C)nc(NC(C)c3cc(N)cc(C(F)(F)F)c3)c2cc1OC1CCOC1 | > 10000 | > 10000 | > 10000 | > 10000 | 53.9 | 102 | 85.6 | 86.5 | 93.5 | 85.6 | 79.8 | 90 | 91 | 75.5 | 7.27 | 80.7 | 79.5 | 87.8 | 57 | 75.3 | viability, T/C [16]: 72.4%; viability, T/C [17]: 57.9%; viability, T/C [18]: 54.3%; viability, T/C [19]: 86.3%; viability, T/C [20]: 78.7%; viability, T/C [21]: 66.5%; viability, T/C [22]: 58.9%; viability, T/C [23]: 82.9%; viability, T/C [24]: 83.1%; viability, T/C [25]: 79%; viability, T/C [26]: 49.6%; viability, T/C [27]: 13.8%; viability, T/C [28]: 12.1%; viability, T/C [29]: 64.3%; viability, T/C [30]: 4.17%
COc1cc2nccc(Oc3ccc(NC(=O)C4(C(=O)Nc5ccc(F)cc5)CC4)cc3)c2cc1OC + COc1cc2nc(C)nc(NC(C)c3cc(N)cc(C(F)(F)F)c3)c2cc1OC1CCOC1 | 7320 | 4890 | 2840 | 747 | < 31.6 | 105 | 112 | 111 | 102 | 94.6 | 107 | 74 | 87 | 1.73 | 0.3 | 98.2 | 93 | 63.8 | 44.8 | 83.1 | viability, T/C [16]: 90.9%; viability, T/C [17]: 51.1%; viability, T/C [18]: 37.2%; viability, T/C [19]: 90.6%; viability, T/C [20]: 91.5%; viability, T/C [21]: 45.6%; viability, T/C [22]: 28.5%; viability, T/C [23]: 74.7%; viability, T/C [24]: 41.4%; viability, T/C [25]: 4.72%; viability, T/C [26]: 0.2%; viability, T/C [27]: 0.4%; viability, T/C [28]: 1.03%; viability, T/C [29]: 0.15%; viability, T/C [30]: 0.23%
